Source: patent publication US11976064B2, “Toll-like receptor agonists” (Pfizer Inc., priority 2019, dated 2024)

Test system: peripheral blood mononuclear cells (PBMCs)
Assay: IFNα release assay from peripheral blood mononuclear cells (HTRF)
Type: cell-based
Conditions: Homo sapiens, PBMC, 24 h, freshly isolated human PBMC, IFNα by HTRF, geometric mean when tested more than once
Method: The Examples described were tested for biological activity in functional cellular assays using HEK293 cells stably overexpressing human TLR7 or TLR8. The assays tested for the ability of each Example to stimulate secretion of interferon alpha (IFNα) in human primary blood mono nuclear cells (PBMC).
To determine the ability of each Example to induce the release of interferon alpha (IFNα) from freshly isolated peripheral blood mononuclear cells (PBMCs), a Homogeneous Time-Resolved Fluorescence (HTRF) assay was utilized. Human whole blood was collected from healthy donors via vein puncture in accordance with Pfizer protocols (Protocol No. GOHW RDP-01), approved by the Shulman Institutional Review Board. 50 ml of human venous blood sample from individual donors was heparinized by addition to a conical tube containing 714 units of Heparin Sodium Injection MDV (Fresenius Kabi, cat #70041) followed by gentle inversion of the tube several times. Blood was then transferred to a flask, the conical tube was rinsed with 40 ml of PBS containing 2 mM EDTA (PBS-EDTA), and the rinse was added to the blood flask with gently mixing. 30 ml of the diluted blood was added to 3 separate histopaque tubes (Sigma, cat #A0561), applying directly to the frit. Histopaque tubes were then spun for 15 min at 1000×g in a tabletop centrifuge. Following density separation, excess upper phase of plasma was aspirated to within ˜5 ml above the interphase and remaining plasma along with the cloudy interphase containing PBMCs were gently decanted into a new conical tube. 15 ml of PBS-EDTA was added to the histopaque tube and swirled gently to remove remaining PBMCs that adhered to the tube wall and this wash was added to the existing PBMCs in the tube. The volume of the tube was brought to 40 ml with PBS-EDTA and tubes were spun at 250×g for 12 minutes at room temperature. After aspiration of the supernatant, the pellet was gently resuspended with 10 ml of PBS-EDTA and centrifuged again at 250×g for 12 minutes. The resulting supernatant was decanted, and the pellet was resuspended in 20 ml of ACK lysing buffer (ThermoFisher, cat #A10492-01) followed by incubation at room temperature for 5 minutes. The volume of each tube was brought to 50 ml with the addition of PBS-EDTA and tubes were spun at 177×g for 12 minutes at room temperature. The PBMC pellet was again resuspended in 10 ml of PBS without EDTA and tubes were spun for a final time at 177×g for 10 minutes. The supernatant was decanted and PBMCs were resuspended in Assay Media (RPMI base media with 10% FBS heat inactivated, 2 mM Glutamax and Penicillin/Streptomycin).
Each Example was prepared for the assay using 11-point half log serial dilutions from a 2.5 mM DMSO stock solution and 400 nl was spotted into 384 well Viewplate (Perkin Elmer, cat #6007480). Positive and negative controls (previously described) were also spotted within the assay plate and were used to determine percent effect during the analysis process. PBMCs were counted and plated at a density of 100,000 cells/[…]/well; plates were covered with a prewet microclime lid to prevent evaporation and incubated for 24 hrs at 37° C. in a 5% CO2 atmosphere. At the end of the incubation, the microclime lid was removed and the plates were spun at 1000 rpm for 5 minutes. 16 μl of conditioned media from the cell plate was transferred into a separate 384 well low-volume plate (Greiner One, 784080). IFNα levels were quantitated using an HTRF® kit (Cisbio, cat #62HIFNAPEG) according to the manufacturer's instructions. The kit supplies two different specific antibodies, one labelled with D2 (acceptor) and the other labelled with cryptate (donor), and detection buffer. The antibody stocks were diluted […] in detection buffer. For one 384 well plate, 62.5 μl of D2 antibody stock and 62.5 μl of cryptate antibody stock was added to 2.375 ml of detection buffer and mixed well. […]

Compound | EC50 [nM]
CCOCc1nc2c(N)nc3ccccc3c2n1CC(C)(CO)CO [Example 3, 2-((4-amino-2-(ethoxymethyl)-1H-imidazo[4,5-c]quinolin-1-yl)methyl)-2-methylpropane-1,3-diol] | 7
CCCCc1nc2c(N)nc3c(c2n1CC(C)(CO)CO)CCCC3 [Example 13, 2-((4-amino-2-butyl-6,7,8,9-tetrahydro-1H-imidazo[4,5-c]quinolin-1-yl)methyl)-2-methylpropane-1,3-diol] | 0.4
CCOCc1nc2c(N)nc(C)c(C)c2n1CC(CC)(CO)CO [Example 9, 2-((4-amino-2-(ethoxymethyl)-6,7-dimethyl-1H-imidazo[4,5-c]pyridin-1-yl)methyl)-2-ethylpropane-1,3-diol] | 2
CCCCc1nc2c(N)nc3ccccc3c2n1CC(C)(CO)CO [Example 10, 2-((4-amino-2-butyl-1H-imidazo[4,5-c]quinolin-1-yl)methyl)-2-methylpropane-1,3-diol] | 1
CCOCc1nc2c(N)nc(C)c(C)c2n1CC(C)(CO)CO [Example 2, 2-((4-amino-2-(ethoxymethyl)-6,7-dimethyl-1H-imidazo[4,5-c]pyridin-1-yl)methyl)-2-methylpropane-1,3-diol] | 19
Cc1nc(N)c2nc(CC(F)(F)F)n(CC(C)(CO)CO)c2c1C [Example 8, 2-((4-amino-6,7-dimethyl-2-(2,2,2-trifluoroethyl)-1H-imidazo[4,5-c]pyridin-1-yl)methyl)-2-methylpropane-1,3-diol] | 48
CCc1nc2c(N)nc3ccccc3c2n1CC(C)(CO)CO [Example 15, 2-((4-amino-2-ethyl-1H-imidazo[4,5-c]quinolin-1-yl)methyl)-2-methylpropane-1,3-diol] | 12
CCCc1nc2c(N)nc3ccccc3c2n1CC(C)(CO)CO [Example 16, 2-((4-amino-2-propyl-1H-imidazo[4,5-c]quinolin-1-yl)methyl)-2-methylpropane-1,3-diol] | 11
CCOCc1nc2c(N)nc(C)c(C)c2n1CC(CO)CO [Example 1, 2-((4-amino-2-(ethoxymethyl)-6,7-dimethyl-1H-imidazo[4,5-c]pyridin-1-yl)methyl)propane-1,3-diol] | 99
CCCCc1nc2c(N)nc3c(c2n1CC(C)(CO)CO)CCC3 [Example 14, 2-((4-amino-2-butyl-7,8-dihydrocyclopenta[b]imidazo[4,5-d]pyridin-1(6H)-yl)methyl)-2-methylpropane-1,3-diol] | 7

Same assay, conditions: freshly isolated human PBMC, 24 hrs, IFNα by HTRF; geometric mean when tested more than once

Compound | EC50 [nM]
CCOCc1nc2c(N)nc(C)c(C)c2n1CC(C)(CO)COC (single isomer, unassigned) [Example 6, 3-(4-amino-2-(ethoxymethyl)-6,7-dimethyl-1H-imidazo[4,5-c]pyridin-1-yl)-2-(methoxymethyl)-2-methylpropan-1-ol] | 22
CCOCc1nc2c(N)nc(C)c(C)c2n1CC(C)(CO)COC (single isomer, unassigned) [Example 7, 3-(4-amino-2-(ethoxymethyl)-6,7-dimethyl-1H-imidazo[4,5-c]pyridin-1-yl)-2-(methoxymethyl)-2-methylpropan-1-ol] | 198
